From paper PMC10778976, “BAY-3827 and SBI-0206965: Potent AMPK Inhibitors That Paradoxically Increase Thr172 Phosphorylation” (International Journal of Molecular Sciences, 2023)

How the values were obtained:
[1] = parameters: method as in PMID 35802287; conditions: cited from earlier work
[2] = molecular target: T1, human α2β2γ1 complex (Homo sapiens, UniProt P54646); test: Cell-free kinase assay of bacterially expressed human α2β2γ1 complex phosphorylated on Thr172 by CaMKK2; type: biochemical; conditions: ATP 200 µM; read-out: IC50, inhibition of human α2β2γ1 complex
T1 construct: (His)6
Description: (§1) AMPK assays measured the transfer of radioactivity from labelled ATP to a peptide substrate, which was separated from unreacted ATP by binding to P81 paper. This assay was described previously, except that we used [γ-^33P]ATP rather than [γ-^32P]ATP. The peptide substrate was the AMARA peptide in all experiments other than one, which analyzed allosteric activation by AMP (Figure 2A), when, for technical reasons, the SAMS peptide was used instead. With purified preparations of AMPK, it was assayed in solution, but for assays in cell lysates (Figure 3D and Figure 4D), it was first immunoprecipitated using a mixture of anti-α1 and -α2 antibodies and assayed in resuspended immunoprecipitates. After the initial immunoprecipitation of lysate containing 80 µg of protein, the pellets were washed twice with 1 mL of high salt IP buffer (50 mM Tris-HCL, pH 7.4 at 4 °C, 1 M NaCl, 1 mM EDTA, 1 mM EGTA, 50 mM NaF, 5 mM Na pyrophosphate, 1 mM dithiothreitol, 0.1% (v/v) Triton X-100) and twice with 1 mL of low salt IP buffer (as above but only 150 mM NaCl), followed by a final wash in 1 mL of assay buffer (50 mM Na Hepes, pH7.4, 150 mM NaCl, 1 mM dithiothreitol, 0.02% (v/v) Brij-35). After each wash, the pellet was recovered via centrifugation (16,000× g, 3 min) and then resuspended. […]

[3] = test system: phosphorylation of Ser29 on ATG14, an established target for ULK1, in U2OS cells; test: ATG14 phosphorylation (ULK1 target) in U2OS cells (Western blot); type: cell-based, human; conditions: read-out: IC50, inhibition of ATG14 (Ser29) phosphorylation
Description: T-Rex U2OS cells carrying a Flp Recombinase Target (FRT) site were generated as described previously and grown in Dulbecco’s Modified Eagle’s Medium (DMEM) supplemented with 10% (v/v) FBS and 1% (v/v) penicillin/streptomycin.
Cells were lysed rapidly in situ on culture plates using ice-cold lysis medium containing phosphatase inhibitors, as described previously.
SDS-PAGE was performed using precast NuPAGE Tris-acetate 3–8% gradient polyacrylamide gels in Tris-acetate running buffer when analyzing ACC, GBF1, or Raptor, or NuPAGE Bis-Tris 4–12% gradient polyacrylamide gels in the MOPS buffer system (ThermoFisher Scientific, Waltham, MA, USA) for other proteins (unless stated otherwise). Proteins were transferred to nitrocellulose membranes using the iBlot 2 system (ThermoFisher Scientific). Membranes were enhanced if necessary using SuperSignal Western Blot Enhancer (ThermoFisher Scientific), then blocked for 1 h in Li-Cor Odyssey blocking buffer. The membranes were probed with the appropriate primary antibody (0.1–1 mg/mL) overnight at 4 °C. […] Protein concentrations were determined by Coomassie Blue binding with bovine serum albumin as a standard. The cellular levels of AMP and ATP were determined via direct perchloric acid extraction from cells, with LC:MS used to estimate the levels of each nucleotide.

[4] = molecular target: T2, human α2β2γ1 complex (Homo sapiens, UniProt O43741+P54619+P54646); test: Cell-free kinase assay of bacterially expressed human α2β2γ1 complex phosphorylated on Thr172 by CaMKK2; type: biochemical; conditions: ATP 200 µM; read-out: IC50, inhibition of human α2β2γ1 complex
T2 construct: (His)6
Description: as §1

[5] = test system: purified rat liver AMPK; test: Allosteric activation of rat liver AMPK by AMP with and without BAY-3827; type: biochemical; conditions: BAY-3827 30 nM
Description: AMPK assays measured the transfer of radioactivity from labelled ATP to a peptide substrate, which was separated from unreacted ATP by binding to P81 paper. This assay was described previously, except that we used [γ-^33P]ATP rather than [γ-^32P]ATP. The peptide substrate was the AMARA peptide in all experiments other than one, which analyzed allosteric activation by AMP (Figure 2A), when, for technical reasons, the SAMS peptide was used instead. With purified preparations of AMPK, it was assayed in solution, but for assays in cell lysates (Figure 3D and Figure 4D), it was first immunoprecipitated using a mixture of anti-α1 and -α2 antibodies and assayed in resuspended immunoprecipitates. After the initial immunoprecipitation of lysate containing 80 µg of protein, the pellets were washed twice with 1 mL of high salt IP buffer (50 mM Tris-HCL, pH 7.4 at 4 °C, 1 M NaCl, 1 mM EDTA, 1 mM EGTA, 50 mM NaF, 5 mM Na pyrophosphate, 1 mM dithiothreitol, 0.1% (v/v) Triton X-100) and twice with 1 mL of low salt IP buffer (as above but only 150 mM NaCl), followed by a final wash in 1 mL of assay buffer (50 mM Na Hepes, pH7.4, 150 mM NaCl, 1 mM dithiothreitol, 0.02% (v/v) Brij-35). After each wash, the pellet was recovered via centrifugation (16,000× g, 3 min) and then resuspended. The final resuspended pellets from each biological replicate were divided into two aliquots (40 µg lysate protein) to provide technical replicates and assayed as above.

[6] = parameters: method as in ref 32 = [32]; 32. Lemos C. Schulze A. Overview for BAY-3827, an Inhibitor of PRKAA1, RPS6KA1 Available online: https://www.sgc-ffm.uni-frankfurt.de/chemProbes#!specificprobeoverview/BAY-3827 (accessed on 14 Novembe); conditions: mouse liver microsomes; cited from earlier work

T2 sequence (P54646 whole entry): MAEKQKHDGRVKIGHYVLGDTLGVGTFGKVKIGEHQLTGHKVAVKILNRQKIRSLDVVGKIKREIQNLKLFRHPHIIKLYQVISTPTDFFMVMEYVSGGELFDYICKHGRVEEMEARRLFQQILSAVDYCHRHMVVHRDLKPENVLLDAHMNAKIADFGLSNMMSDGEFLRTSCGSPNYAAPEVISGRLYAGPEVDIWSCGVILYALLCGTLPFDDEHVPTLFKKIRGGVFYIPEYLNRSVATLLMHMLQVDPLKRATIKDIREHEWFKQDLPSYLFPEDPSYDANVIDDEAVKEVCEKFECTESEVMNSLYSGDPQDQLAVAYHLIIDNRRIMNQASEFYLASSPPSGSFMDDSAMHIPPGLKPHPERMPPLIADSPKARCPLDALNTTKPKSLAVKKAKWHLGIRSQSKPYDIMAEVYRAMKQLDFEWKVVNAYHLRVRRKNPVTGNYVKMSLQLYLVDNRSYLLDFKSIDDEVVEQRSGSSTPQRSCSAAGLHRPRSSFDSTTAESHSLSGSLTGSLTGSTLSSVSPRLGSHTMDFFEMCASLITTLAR
T2 sequence (O43741 whole entry partner): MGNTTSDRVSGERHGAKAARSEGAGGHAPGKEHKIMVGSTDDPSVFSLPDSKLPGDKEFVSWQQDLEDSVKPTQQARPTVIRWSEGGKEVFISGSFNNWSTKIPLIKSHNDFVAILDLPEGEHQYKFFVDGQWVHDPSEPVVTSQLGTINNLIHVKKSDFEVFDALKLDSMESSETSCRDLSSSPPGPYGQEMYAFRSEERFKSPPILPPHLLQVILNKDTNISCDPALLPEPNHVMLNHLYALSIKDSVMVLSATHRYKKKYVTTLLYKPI
T2 sequence (P54619 whole entry partner): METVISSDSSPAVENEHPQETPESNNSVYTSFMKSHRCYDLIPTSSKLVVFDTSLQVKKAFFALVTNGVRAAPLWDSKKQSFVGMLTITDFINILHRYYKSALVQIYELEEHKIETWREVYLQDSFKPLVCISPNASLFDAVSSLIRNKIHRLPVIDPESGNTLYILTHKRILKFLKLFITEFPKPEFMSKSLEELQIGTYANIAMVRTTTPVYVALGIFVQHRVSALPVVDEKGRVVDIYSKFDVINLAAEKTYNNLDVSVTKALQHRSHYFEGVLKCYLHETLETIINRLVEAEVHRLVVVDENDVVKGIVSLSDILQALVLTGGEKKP
T1 sequence (P54646 whole entry): as the sequence (P54646 whole entry) above
T1 sequence (O43741 whole entry partner): as the sequence (O43741 whole entry partner) above
T1 sequence (P54619 whole entry partner): as the sequence (P54619 whole entry partner) above

| IC50 [4] [nM] | fold increase of EC50 for AMP [5] [fold] | Compound | elimination half-life [1] | relative oral availability [1] | IC50 [2] [nM] | IC50 [3] [nM] | basal activity (without AMP) ([5]; control without inhibitor 135) [nmol/min/mg] | in vitro clearance (CL) [6] [mL/min/kg] | oral bio-availability (Fmax) [6] [%] |
| --- | --- | --- | --- | --- | --- | --- | --- | --- | --- |
|  |  | CNC(=O)c1ccccc1Oc1nc(Nc2cc(OC)c(OC)c(OC)c2)ncc1Br [SBI-0206965] | short | low | 206 | 67000 |  |  |  |
| 70 | 5 | CCc1ccccc1C(=O)Nc1n[nH]c2c(C)c(F)c(C3C(C#N)=C(C)N(C)C(C)=C3C#N)cc12 [BAY-3827] |  |  |  |  | 46 | 83 | 7 |
